Assay results: the AptaBench aptamer set (doi:10.1093/nar/gkaf219)
Blank lines part the entries; values can stand above or below the compound they belong to.

Key:
Conditions in all cases: 10 mM Tris-HCl, pH 7.4
[1] = system: DNA aptamer or structured DNA GGGACGACGGGGGGAGTTTGTTTGTGTGGGAGGGTCCAGTCGTCCC
[2] = system: DNA aptamer or structured DNA GGGACGACGGGGATTCGGTTCGTCATTTGGCAGTGCCTCGTACGTCGTCCC
[3] = system: DNA aptamer or structured DNA GGGACGACCAGAATGGAAGCATTGGTTGCCGCAGGGTGCCGCAGTCGTCCC
[4] = system: DNA aptamer or structured DNA GGGACGACGCGTACCTGTGGTAGTCGTACGTCGTTCAAGTCGTCCC
[5] = system: DNA aptamer or structured DNA GGGACGACGGGATGTGGTGTCAGTCATGATGGGATCAAGTCGTCCC
[6] = system: DNA aptamer or structured DNA GGGACGACGGATTGCGCTTGCTAACGCCGTGTAGAGTCGTCGTCCC
For binding call in this document: call rule not given here.

binding call [1]: no binding
Compound: c1ccc([C@H]2CN3CCSC3=N2)cc1

binding call [4]: no binding
binding call [5]: no binding
binding call [1]: binds
Compound: CC(=O)Nc1ccc(O)cc1

binding call [2]: no binding
Compound: NCC(O)c1ccc(O)c(O)c1 (stereo unspecified)

binding call [3]: no binding
binding call [4]: no binding
binding call [2]: no binding
Compound: CCN(CC)CCOC(=O)c1ccc(N)cc1

binding call [2]: no binding
Compound: CCN(CC)CC(=O)Nc1c(C)cccc1C

binding call [2]: no binding
Compound: NCCc1ccc(O)c(O)c1

binding call [6]: no binding
Compound: CN(C)CCOC(c1ccccc1)c1ccccc1

More lines, now with the values behind:

Compound: CN1CC[C@]23c4c5ccc(O)c4O[C@H]2[C@@H](O)C=C[C@H]3[C@H]1C5
Kd [2]: 1500 nM

Compound: CC(N)Cc1ccccc1 (stereo unspecified)
binding call [3]: no binding

Compound: CC(=O)Oc1ccc2c3c1O[C@H]1[C@@H](OC(C)=O)C=C[C@H]4[C@@H](C2)N(C)CC[C@@]341
Kd [4]: 4520 nM

Compound: CN1C(=O)CN=C(c2ccccc2)c2cc(Cl)ccc21
binding call [6]: no binding

Compound: C=CCN1CC[C@]23c4c5ccc(O)c4O[C@H]2C(=O)CC[C@@]3(O)[C@H]1C5
binding call [4]: no binding

Compound: OC[C@@H](O)[C@@H](O)[C@H](O)[C@H](O)CO
binding call [1]: no binding

Compound: O=C1CC[C@@]2(O)[C@H]3Cc4ccc(O)c5c4[C@@]2(CCN3CC2CC2)[C@H]1O5
binding call [4]: no binding

Compound: COC(=O)[C@@H]1C2CCC(C[C@@H]1OC(=O)c1ccccc1)N2C (stereo partly specified)
binding call [3]: no binding

Compound: CN[C@@H](C)Cc1ccccc1
binding call [3]: no binding

Compound: COc1ccc2c3c1O[C@H]1C(=O)CC[C@@]4(O)[C@@H](C2)N(C)CC[C@]314
binding call [3]: no binding
Kd [6]: 2160 nM
Kd [5]: 3650 nM
Kd [1]: 1750 nM

Compound: Cn1c(=O)c2c(ncn2C)n(C)c1=O
binding call [6]: no binding
binding call [1]: binds
